{
  "source": "patent US10793525B2",
  "about": "“13-cis-RAMBA retinamides that degrade MNKs for treating cancer” (UNIVERSITY OF MARYLAND, BALTIMORE, priority 2014, dated 2020)",
  "key": {"[1]": {"test_system": "CWR22Rv1 xenograft tumors", "test": "CWR22Rv1 anti-tumor efficacy study (xenograft)", "assay_type": "in vivo, mice", "experimental": "(§1) All animal studies were performed according to the guidelines and approval of the Animal Care Committee of the University of Maryland School of Medicine, Baltimore (UMB). Female Athymic Nude mice or male SCID (Charles Rivers Laboratories or UMB facilities) at 4-6 weeks of age were maintained in a pathogen-free environment. MDA-MB-231 (10×10^6) cells were subcutaneously implanted into Athymic Nude mice and CWR22Rv1 (1×10^6) cells into male SCID mice. Mice bearing established tumors (˜100 mm^3) were randomized into treatment groups of 6 and dosed with vehicle (40% β-cyclodexdrin in ddH2O), or compounds 20 and 22 (i.p., formulated in 40% β-cyclodexdrin in ddH2O, once daily, 5 days a week for 28 days).\n(§2) The National Cancer Institute (NCI) criteria^23 were used to determine tumor growth efficacy of our compounds. Thus, percent test or treatment/control (% T/C), defined as the ratio of the median tumor volume for the treated group versus control group, was calculated as % T/C=[(median tumor volume of treated group at day 28)/(median tumor volume of control group at day 28)]×100."}, "[2]": {"test_system": "MDA-MB-231 human breast cancer cells", "test": "MTT cell proliferation assay, MDA-MB-231", "assay_type": "cell-based", "conditions": "MDA-MB-231 cells, SEM < 10%, read-out: GI50s MDA-MB-231", "from_the_text": "(§3) MCF-7, MDA-MB-231, MDA-MB-468 and SKBR-3 human breast cancer cells and LNCaP, PC-3, and CWR22Rv1 human prostate carcinoma cells (American Type Culture Collection, Manassas, Va., USA) were maintained in RPMI 1640 media (Gibco-Life Technologies, Grand Island, N.Y., USA) supplemented with 10% fetal bovine serum and 1% penicillin/streptomycin. Western blotting was done as mentioned previously,^8, 13b using the following antibodies: AR, Bad, Bax, Bcl-2, eIF4E, Mnk1, Mnk-2, N-cadherin, PARP, peIF4E^ser209 purchased from Cell Signaling Technology, Danvers, Mass., USA. Anti-Mnk2 was purchased from Sigma-Aldrich and normal rabbit IgG, cyclin D1 was from Santa Cruz Biotechnology, CA, USA.\n(§4) Cells were plated (2500 cells/well) in 96 well plates and treated with or without specified compounds as described previously.^8a, 12b\n(§5) The clinically relevant retinoids, ATRA and 4-HPR and the Mnk inhibitor, cercosporamide were used as comparators in the assays."}, "[3]": {"test_system": "PC-3 human prostate carcinoma cells", "test": "MTT cell proliferation assay, PC-3", "assay_type": "cell-based", "conditions": "PC-3 cells, SEM < 10%, read-out: GI50s PC-3", "from_the_text": "as §3, §4, §5\n(§6) The PC-3 cell line was the least sensitive to all the compounds tested."}, "[4]": {"test_system": "MCF-7 human breast cancer cells", "test": "MTT cell proliferation assay, MCF-7", "assay_type": "cell-based", "conditions": "Homo sapiens, MCF7; MCF-7 cells, MTT, SEM < 10%; read-out: GI50s MCF-7", "from_the_text": "as §3, §4, §5"}, "[5]": {"test_system": "CWR22Rv1 human prostate carcinoma cells", "test": "MTT cell proliferation assay, CWR22Rv1", "assay_type": "cell-based", "conditions": "SEM < 10%, read-out: GI50s CWR22Rv1", "from_the_text": "as §3, §4, §5, §6"}, "[6]": {"test_system": "fAR, AR-V7, Mnk-1, peIF4E and their downstream targets", "test": "Molecular analysis of CWR22Rv1 tumors", "assay_type": "in vivo", "conditions": "CWR22Rv1 tumors from treated mice", "from_the_text": "To assess their in vivo mode of action, we evaluated the effects of Compound 20 on fAR, AR-V7, Mnk-1, peIF4E and their downstream targets."}, "MDA-MB-231 cells": {"test_system": "MDA-MB-231 cells", "test": "Wound-healing assay, MDA-MB-231 cell migration", "assay_type": "cell-based, human", "conditions": "5 μM, 24 h", "experimental": "Wound healing assay and matrigel invasion assay were also conducted as described previously using highly metastatic PC-3 cells following treatment with 5 μM of RRs for 24 h.^8a,26\nBased on previous studies with closely related compound,^8 the inhibitory effects of Compounds 16, 20 and 22 on cell migration were evaluated, using the human metastatic BC cell line, MDA-MB-231 by wound-healing assay. MDA-MB-231 cells (5×10^5 cells/well) were seeded on Boyden chamber, grown to confluence and scratches made at experimental tome zero. The cells were treated with indicated compounds (5 μM each) for 24 h. Representative photomicrographs of initial and final wounds are shown at 100× magnification. […] At 24 hours after cell monolayers were wounded, control cells had completely filled in the scratched area."}, "LNCaP cells": {"test_system": "LNCaP cells", "test": "MTT viability of LNCaP cells with AR and/or Mnk1 siRNA knockdown", "assay_type": "cell-based, human", "experimental": "siRNA (100 nM) was transfected into LNCaP cells using Lipofectamine® 2000 Transfection reagent (Invitrogen) as per manufacturer's protocol. Protein silencing was confirmed by immunoblot analysis. For cell growth assay experiments, transfection complex were removed after 18 h, cells were washed twice with PBS and replaced with growth medium. 24 h later drug was added and harvested after 72 h. For Western blot experiment, transfection complexes were washed off after 18 h and replaced with phenol free media for 24 h. Cells were then treated with 20 μM of VNLG-152 for an additional 24 h and cells were lysed using RIPA lysis buffer.^8b, 27 Luciferase assay was conducted in LNCaP cells using the Dual Luciferase kit (Promega) as described earlier.^8b, 13b\nTo confirm whether AR and Mnk1 are the major anti-cancer targets of these compounds on LNCaP cells, the percentage of cell survival in LNCaP cells was analyzed by MTT assay following transient transfection with AR siRNA and/or Mnk1 siRNA for 18 hours."}, "[7]": {"test_system": "SKBR-3 human breast cancer cells", "test": "MTT cell proliferation assay, SKBR-3", "assay_type": "cell-based", "conditions": "SK-BR-3, SKBR-3 cells, SEM < 10%, read-out: GI50s SKBR-3", "from_the_text": "as §3, §4, §5"}, "[8]": {"test_system": "MDA-MB-231 xenograft tumors", "test": "MDA-MB-231 anti-tumor efficacy study (xenograft)", "assay_type": "in vivo", "experimental": "as §1, §2\nIndeed, the two compounds were equipotent (FIG. 9A). […] Representative photos of the tumor-bearing mice in the control and the two treatment groups at termination of experiment (day 28) are presented in FIG. 9B."}, "[9]": {"test_system": "MDA-MB-468 human breast cancer cells", "test": "MTT cell proliferation assay, MDA-MB-468", "assay_type": "cell-based", "conditions": "MDA-MB-468 cells, SEM < 10%, read-out: GI50s MDA-MB-468", "from_the_text": "as §3, §4, §5"}, "[10]": {"conditions": "CWR22Rv1 xenografts, castrated SCID mice, i.p. 20 mg/kg/day, 5 days per week for 28 days"}, "[11]": {"conditions": "MDA-MB-231 xenograft mice, i.p. 20 mg/kg 5×/week over 28 days"}},
  "data": [
    {"compound": "CC1=C(/C=C/C(C)=C/C=C/C(C)=C\\C(=O)Nc2cccc(F)c2)C(C)(C)CCC1n1ccnc1", "note": "(centres unmarked) [Compound 20, (2Z,4E,6E,8E)-9-(3-(1H-imidazol-1-yl)-2,6,6-trimethylcyclohex-1-en-1-yl)-N-(3-fluorophenyl)-3,7-dimethylnona-2,4,6,8-tetraenamide]", "values": [
      {"measurement": "adverse effects", "setting": "[1]; CWR22Rv1 xenograft mice", "result": "no apparent adverse effects"},
      {"measurement": "body weights", "setting": "[1]; CWR22Rv1 xenograft mice, vehicle control versus treatment", "result": "comparable"},
      {"measurement": "% T/C value", "setting": "[1]; [10]", "result": 38.8, "unit": "%"},
      {"measurement": "suppression of tumor growth", "setting": "[1]; [10]", "result": 61.2, "unit": "%"},
      {"measurement": "IC50", "setting": "[2]", "result": 8.51, "unit": "µM"},
      {"measurement": "IC50", "setting": "[3]", "result": 5.62, "unit": "µM"},
      {"measurement": "IC50", "setting": "[4]", "result": 5.69, "unit": "µM"},
      {"measurement": "IC50", "setting": "[5]", "result": 2.04, "unit": "µM"},
      {"measurement": "fAR, AR-V7, Mnk1/2, peIF4E, cyclin D1 and Bcl-2 in tumors", "setting": "[6]", "result": "depletion"},
      {"measurement": "pro-apoptotic protein Bad in tumors", "setting": "[6]", "result": "up-regulation"},
      {"measurement": "migration of MDA-MB-231 cells", "setting": "MDA-MB-231 cells", "result": "significantly inhibited migration"},
      {"measurement": "cell viability, un-transfected LNCaP cells", "setting": "LNCaP cells; 5 μM, 72 hours, MTT", "result": "robust reduction in cell viability"},
      {"measurement": "cell viability, LNCaP cells harboring AR or Mnk1 knockdown", "setting": "LNCaP cells; 5 μM, compared to siRNA alone treated counterparts", "result": "sensible decrease in cell viability"},
      {"measurement": "cell viability, LNCaP cells with double knockdown of AR and Mnk1", "setting": "LNCaP cells; compared to cells co-treated with Mnk1 and AR siRNA", "result": "did not show any significant decrease in cell viability"},
      {"measurement": "IC50", "setting": "[7]", "result": 17, "unit": "µM"},
      {"measurement": "body weight", "setting": "[8]; [11]", "result": "did not lose body weight"},
      {"measurement": "signs of toxicity / adverse events", "setting": "[8]; [11]", "result": "no apparent adverse events"},
      {"measurement": "suppression of tumor growth", "setting": "[8]; MDA-MB-231 xenografts, i.p. 20 mg/kg 5×/week over 28 days", "result": 85.4, "unit": "%"},
      {"measurement": "% T/C (treated/control median tumor volume)", "setting": "[8]; MDA-MB-231 xenografts, i.p. 20 mg/kg 5×/week, day 28", "result": 14.6, "unit": "%"},
      {"measurement": "IC50", "setting": "[9]", "result": 6.76, "unit": "µM"}
    ]}
  ]
}
